In patent US20050090471A1, “Inhibitors of cyclin-dependent kinases, compositions and uses related thereto” (GPC Biotech, Inc, priority 2001, published 2005):
Like-named read-outs stand apart in the source and are kept apart here.

Experiments:
HCT-116 cells [1] = test: BrdU incorporation into DNA (flow cytometry); type: cell-based, human; design: unit not given here; conditions: inhibition of BrdU incorporation, unit not given; for BrdU 72: analysis at 72 hours; for BrdU 24: analysis at 24 hours; for BrdU 48: analysis at 48 hours
Method: This method measured the percentage of cells that incorporated the nucleotide analog, BrdU, into newly synthesized DNA as cells progressed through the S phase of the cell cycle. The inhibition of BrdU incorporation was used as a measure of a Cdlc inhibitor's effect on S phase progression and DNA replication.
3 sets of HCT-116 cells (100,000 cells/set) were plated in T25 flasks and incubated with a test compound as above. Analysis was done at 24, 48, and 72 hours. BrdU was added to each T-25 flask from a stock of 10 mg/ml to a final concentration of 10 μM and the cells were incubated for an additional 16-18 hours at 37° C. The cells were then prepared for flow cytometric analysis according to manufacturer's protocol (BrdU Flow kit, BD-Pharmingen catalogue # 2354KK) as follows:
Cells were harvested (adherent and floating) from the T25 flasks directly into Falcon 12×75 flow cytometric tubes as above followed by fixation and permeabilization with the addition of 100 μl Cytofix/Cytoperm buffer (30 minutes, room temperature). The cells were then washed with 1 ml of Perm Wash buffer and the cell pellets were resuspended in 100 μl Cytoperm Plus buffer and incubated on ice for 10 minutes. The cells were then washed again with 1 ml of Perm Wash buffer and the fixation was repeated in 100 μl of Cytofix/Cyto Perm buffer for 10 minutes at room temperature. The cells were then washed with 1 ml of Perm Wash buffer. The cells were next treated for one hour at 37° C. with 100 μl DNase to expose incorporated BrdU followed by another wash step with 1 ml of Perm Wash buffer. […] Cells were protected from light and incubated at room temperature for 20-30 minutes. Following the incubation, the cells were washed with 1 ml of Perrn Wash buffer, resuspended in 300 μl of 2% FBS in PBS, and analyzed on the flow cytometer.

HCT-116 = test: Calcein AM viability assay, HCT-116; type: cell-based, human; conditions: 72-hours incubation
Method: (§1) The potency of Cdk inhibitors, as measured by loss of cellular viability, was determined with the Calcein AM assay (Molecular Probes). Calcein AM is a substrate of intracellular esterases, which is cleaved only in viable cells to generate a fluorescent product that can be quantified with a fluorescent plate reader. The fluorescent signal is proportional to the number of viable cells, and thus loss of signal in response to the exposure of cells to Cdk inhibitors correlates with a loss of viability. This assay distinguishes cell cycle arrest from loss of viability and is thus well suited for the evaluation of Cdk inhibitors.
(§2) Cellular IC50's were determined in the human colorectal carcinoma cell line, HCT-116, and the normal human fibroblast, IMR90. Protein adjusted IC50's were also determined in HCT-116. Results are presented in Table 3 below (HCT-116 (viability/protein adjusted) and IMR-90).
(§3) HCT-116 or IMR90 cells were recovered from sub-confluent plates by trypsinization and 1,000 or 4,000 cells, respectively, were plated in 24-well dishes and incubated overnight at 37° C., 5% CO2. HCT-116 cells were cultured in RPMI-1640, 10% FCS, and IMR90 cells were cultured in Minimum Essential Medium-alpha, 10% FCS. After overnight incubation to allow.adlierence, the media was aspirated from each well and replaced with media containing a test compound at a concentration from 0 to 250 nM, spanning a total of 7 doses. The plates were returned to the incubator and cultured for an additional 3 days. […] After 72-hours incubation with the test compound, the cells were washed twice with 1×PBS, talking special care to remove all residual buffer.
(§4) A 5 μM Calcein AM. solution was prepared by dissolving a 50 μg aliquot of Calcein (Molecular Probes catalog # C3100) in 50 μl DMSO. After the Calcein had completely dissolved (10 minutes at room temperature), it was diluted into 10 ml PBS. Calcein/PBS (0.5 ml) was added to each well. The plates were incubated for 75 minutes at 37° C. (protected from light) and the fluorescent signal was read on a fluorescent plate reader (excitation 485/20 and emission 530/25).

HCT-116 cells [2] = test: Clonogenic survival assay with HCT-116 cells; type: cell-based; conditions: Homo sapiens
Method: This assay was used to determine the concentration of a compound that results irreversible loss of viability after a specified period of exposure.
Media (RPMI-1640, 10% FCS, pen/strep) was pre-warnied to 37° C. in a water bath. Cells were incubated and grown at 37° C., 5% CO2. Cells were recovered by trypsinization from sub-confluent plates and counted using a hemocytometer. 1×10^4 cells were plated in 25 mls of media in a 15 cm tissue culture dish. 14 plates were set up for each test compound, and were incubated overnight at 37° C. The compound was diluted into media at 7 concentrations and the media on the cells was replaced with that containing the test compound. Two plates were set up for each concentration of the compound to be tested, as well as two control plates without compound. […] Colonies were stained with crystal violet solution (0.4% crystal violet, 20 % ethanol) for 5 minutes, washed twice with distilled water, and counted.

IMR90 = test: Calcein AM viability assay, IMR90; type: cell-based; conditions: IMR-90, normal human fibroblast, 72-hours incubation
Method: as §1, §2, §3, §4

[3] = test system: NCI panel of 60 cell lines; test: NCI panel of human tumor cell lines (SRB assay), MG-MID; type: cell-based; conditions: 48 hours incubation with compound
Excerpt: (§5) The evaluation of compounds at the National Cancer Institute in their panel of 60 cell lines provides a wealth of information regarding efficacy in a wide range of tumor types and genetic backgrounds. Included within this panel are cell lines derived from leukemia, melanoma and cancers of the lung, colon, brain, ovary, breast, prostate and kidney. Use of this panel provides a measure of the efficacy of compounds in cells with alterations in many genes that are associated with neoplastic transformation including p53 and Her2/Neu as well as those involved in metabolism and those which confer multi-drug resistance. The data generated in these cell lines with the protocol described below can be used to evaluate the activity of compounds.
(§6) Cells were grown in RPMI-1640 10% FCS and plated in 96 well micro-titer plates at densities ranging from 5,000 to 40,000 cells/well. The plates were incubated for 24 hours at 37° C., 5% CO2 for 24 hours. Media containing twice the desired final concentration of the compound (5 doses spanning 4 logs) was prepared and 100 μl was added to each well containing 100 μl media plus cells to yield the desired final concentration. The plates were then incubated for an additional 48 hours.
(§7) The effect of the compound on cellular viability was determined with the Sulforhodamine B (SRB) assay which measures total protein. Cells were fixed with cold TCA to a fmal concentration of 10% and incubated at 4° C. for 60 minutes. The supernatant was discarded and the plates were washed five times with water and air-dried. SRB solution at […] in 1% acetic acid was added to each well and the plates were incubated for 10 minutes at room temperature. The plates were washed five times with 1% acetic acid and air-dried. The bound stain was solubilized with 10 mM trizma base and the absorbance was read on a plate reader at […].

ADR-res = test: NCI panel (SRB assay), ADR-res cell line; type: cell-based, human; conditions: 48 hours incubation with compound, unit not given
Excerpt: as §5, §6, §7

arrested IMR90 cells = test: Arrested cell assay (serum starvation), IMR90; type: cell-based, human; design: unit not given here; conditions: serum-starved arrested cells; unit not given
Method: (§8) Cyclin-dependent kinase (Cdk) activity is required to promote the progression of cells through distinct phases of the cell division cycle. The proliferation of normal, non-transformed, cells in culture requires the presence of growth factors, the removal of which, through serum deprivation, leads to a loss of Cdlc activity and consequent exit from the cell cycle as cells enter the quiescent phase, Go.
IMR90 cells were plated in triplicate for each compound concentration to be tested in MEM-α media containing 10% fetal calf serum at a density of either 2,000 or 20,000 cells per well in 24-well dishes and incubated overnight at 37° C., 5% CO2. The media was removed from the 20,000 cell-per-well dish, cells were washed once with serum-free media, and serum-fiee media was placed on cells. The plates containing cells both in the presence and absence of serum were incubated for 3 additional days.
(§9) To ensure that the cells had indeed exited the cell cyde upon serum withdrawal, the percentage of BrdU positive cells, indicative of those progressing through S phase, was determined in each experiment. For the purpose of this experiment, cellular viability was evaluated simultaneously with the use of SNARF-1, a fluorescent substrate of intracellular esterases which are only active in viable cells. Together, the evaluation of BrdU incorporation and SNARF-1 cleavage by flow cytometry provided an assessment of the viability of arrested cells on a single cell basis. For this analysis, the cells were stained with SNARF-1 as follows and then prepared for determination of BrdU incorporation as described above.
(§10) HCT-116 and IMR90 cells were plated at the density described below in T25 flasks in serum-containing media (RPMI-1640 or MEM-a with 10% FCS, respectively). After 24 hours of growth, the media was removed and, after washing the cells, replaced with serum-free media. • HCT-116+FCS 5,000 cells • HCT-116−FCS 100,000 cells • IMR90+FCS 100,000 cells • IMR90−FCS 200,000 cells
(§11) The IMR90 cells were grown for an additional 3 days and the HCT-116 cells were grown for an additional 6 days before pulsing with BrdU. A 50 μg aliquot of SNARF-1 (Molecular Probes catalog #C1272) was dissolved in 50 μl DMSO at room temperature for 10 minutes and then diluted into 10 ml PBS. The SNARF-1 was further diluted 1:64,000 before 200 μl was added to each tube of cells which had been cultured in the presence or absence of serum and pulsed with BrdU for 20 hours. The cells were incubated at 37° C. for 30 minutes and then washed with 3 ml of PBS.
(§12) These cells were then fixed and prepared for the measurement of BrdU incorporation as described above. The percentage of viable (FL-2) and BrdU positive (FL-1) cells was determined on a FACScan flow cytometer.

arrested HCT-116 cells = test: Arrested cell assay (serum starvation), HCT-116; type: cell-based, human; design: unit not given here; conditions: serum-starved arrested cells; unit not given
Method: as §8
HCT-116 cells were plated in triplicate for each compound concentration to be tested in RPMI 1640 media containing 10% fetal calf serum at a density of either 200 or 2,000 cells per well in 24 well dishes, and incubated overnight at 37° C., 5% CO2. The media from the plate containing 2,000 cells per well was removed, cells were washed once with serum free media and 1 ml of serum free media was placed on cells. Tle plates containing cells both in the presence and absence of serum were incubated for 6 additional days.
as §9, §10, §11, §12

[4] = Homo sapiens, RPMI-1640 10% FCS, read-out: HCT-116 IC50 viability
[5] = 24 h exposure, read-out: HCT-116 IC50 clonogenic 24 h
[6] = plus 1 mg/ml alpha acidic glycoprotein and 45 mg/ml human serum albumin, read-out: HCT-116 IC50 protein adjusted

IC50 (HCT-116; [4]) | IC50 (HCT-116; [6]) | SMILES | BrdU 72 (HCT-116 cells [1]) | IC50 (HCT-116 cells [2]; 48 h exposure, read-out: HCT-116 IC50 clonogenic 48 h) | IC50 (HCT-116 cells [2]; 72 h exposure, read-out: HCT-116 IC50 clonogenic 72 h) | IC50 (IMR90) | NCI panel MG-MID [3] | NCI panel ADR-res (ADR-res) | IC50 (HCT-116 cells [2]; [5]) | BrdU 24 (HCT-116 cells [1]) | BrdU 48 (HCT-116 cells [1]) | Arrested cell IMR90 (arrested IMR90 cells) | Arrested cell HCT (arrested HCT-116 cells)
< 100 nM | – | CC(C)c1nn(-c2c(Cl)cc(Cl)cc2Cl)c2nc(Cc3ccc(OCCN4CCOCC4)cc3)[nH]c(=O)c12.Cl [A] | <0.1 | < 100 nM | < 100 nM | < 100 nM | <0.1 µM | <1 | – | – | – | – | –
< 10 nM | – | Cc1cc(-c2[nH]nc3c2C(=O)c2c(NC(=O)NN4CCN(C)CC4)cccc2-3)ccc1OCCN1CCCC1 [Compound P] | – | – | – | < 100 nM | – | – | < 100 nM | – | – | – | –
– | < 1000 nM | CN1CCN(NC(=O)Nc2cccc3c2C(=O)c2c-3n[nH]c2-c2ccc(OCCN3CCC[C@H]3CO)cc2)CC1.Cl.Cl.Cl [M] | <0.1 | – | – | < 100 nM | – | – | – | <0.1 | <0.1 | >1.0 | <0.1
< 1000 nM | < 1000 nM | CN1CCN(NC(=O)Nc2cccc3c2C(=O)c2c-3n[nH]c2-c2ccc(OCCN(CCO)CCO)cc2)CC1 [N] | – | – | – | > 100 nM | – | – | – | – | – | – | –

Further lines, the compound ahead of its results:

SMILES | IC50 (HCT-116; [4]) | IC50 (HCT-116; [6]) | BrdU 72 (HCT-116 cells [1]) | IC50 (HCT-116 cells [2]; 48 h exposure, read-out: HCT-116 IC50 clonogenic 48 h) | IC50 (HCT-116 cells [2]; 72 h exposure, read-out: HCT-116 IC50 clonogenic 72 h) | IC50 (IMR90) | NCI panel MG-MID [3] | NCI panel ADR-res (ADR-res) | IC50 (HCT-116 cells [2]; [5]) | BrdU 24 (HCT-116 cells [1]) | BrdU 48 (HCT-116 cells [1]) | Arrested cell IMR90 (arrested IMR90 cells) | Arrested cell HCT (arrested HCT-116 cells)
CC(C)c1nn(-c2c(Cl)cc(Cl)cc2Cl)c2nc(Cc3ccc(NS(=O)(=O)CCCN4CCOCC4)cc3)[nH]c(=O)c12.Cl [D] | – | – | <0.1 | – | – | < 10 nM | – | – | – | <0.1 | <0.1 | >1.0 | <0.01
Cc1cc(OCCN2CCCC2)ccc1-c1[nH]nc2c1C(=O)c1c(NC(=O)NN3CCN(C)CC3)cccc1-2.Cl.Cl.Cl [L] | – | < 1000 nM | <0.1 | – | – | > 100 nM | >10 µM | >10 | – | <0.1 | <0.1 | – | –
CN1CCN(NC(=O)Nc2cccc3c2C(=O)c2c-3n[nH]c2-c2ccc(OCCN3CC[C@H](O)C3)cc2)CC1.Cl.Cl.Cl [O] | – | – | <1 | – | – | < 100 nM | – | – | < 10 nM | <0.1 | <1 | >0.1 | <0.1
